In US20140377379A1, “METHOD FOR PROGNOSING THE AGE-AT-ONSET OF HUNTINGTON'S DISEASE” (Institut National de la Sante et de la Recherche Medicale …, priority 2010, published 2014):
Entries after “also recorded” stand apart in the source; their conditions may differ.

Legend:
[1] = system: 109Q/109Q striatal cells; experiment: Cell death assay in mutant htt striatal cells from HdhQ111 mice; format: cell-based, mouse
Description: Cell death assays for HdhQ111 mouse striatal cells expressing full-length htt with either wild-type (7Q/7Q) or mutant (109Q/109Q) polyglutamines were performed as previously described (Arango et al. 2006 Neurosci 26:4649-59). jetPEI was used for transfection with cDNA and jetSI-ENDO for siRNA assays as indicated by the manufacturer (PolyPlus Transfection). siRNA oligos were obtained from Clontech (β-catenin) and QIAGEN (SIRT1, SIRT2, SIRT3, UCP2 and UCP4). Mixes of 3-4 different siRNA sequences per gene (25 or 33 nM) were systematically tested for modulation of cell survival and siRNA target gene expression, followed by the evaluation of individual siRNA sequences at optimal concentration (25-100 nM). […] The siRNA sequences shown in figures are as it follows: β-catenin siRNA, 5′-[…]-3′ (100 nM) (SEQ ID NO:41); FoxO3a siRNA 5′-[…]-3′ (SEQ ID NO:42) (100 nM); SIRT1 siRNA, 5′-[…]-3′ (SEQ ID NO:43) (25 nM); SIRT2 siRNA 5′-[…]-3′ (SEQ ID NO:44) (25 nM); SIRT3 siRNA, 5′-[…]-3′ (SEQ ID NO:45) (25 nM); UCP2 siRNA, 5′-[…]-3′ (SEQ ID NO:46) (33 nM), and UCP4 siRNA sequences 5′-[…]-3′ (SEQ ID NO:47) (33 nM). The constructs encoding an active variant of SIRT1 (2 kb cDNA) lacking an internal segment in the N-terminus and full length FoxO3a were pcDNA3.1-sirt1-Flag and pcDNA3.1-FoxO3a-HA, respectively. Cells were subjected to DAPI staining and cell death was scored 48 hours after cell transfection by counting picnotic versus normal nuclei in DAPI- and JetSI-ENDO-positive cells. Cytoplasmic and nuclear proteins were extracted as previously described (Arango et al. 2006 Neurosci 26:4649-59), separated by SDS-PAGE and analyzed by Western blotting using the following primary antibodies: Mouse anti-SIRT1 (Upstate, 1:1000), mouse anti-SIRT2 (Santa Cruz, 1:100), rabbit anti-SIRT-3 (Abgent, 1:100), rabbit-anti-β-catenin (Cell Signaling, 1:5000), mouse anti-FoxO3a (Cell Signaling, 1:1000), goat-anti-UCP2 (Santa Cruz, dilution), rabbit-anti-UCP4 (Abcam, 1:25), mouse anti-actin (Invitrogen, 1:2000), anti-htt (4C8, Chemicon, 1:5000). Secondary antibodies were goat-anti-mouse IgG HRP-conjugated and goat-anti-rabbit IgG HRP-conjugated (Biorad). Proteins were detected using ECL+ and evaluated by densitometry. Quantitative Real-Time PCR experiments were performed as described in the Supporting Information/Materials and Methods. Chemicals were either purchased from Sigma (Resveratrol) and Calbiochem (B10, LiCl).

[2] = system: 7Q/7Q striatal cells; experiment: Cell death assay in normal htt striatal cells; format: cell-based, mouse; conditions: siRNA
Description: (§1) Cell death assays for HdhQ111 mouse striatal cells expressing full-length htt with either wild-type (7Q/7Q) or mutant (109Q/109Q) polyglutamines were performed as previously described (Arango et al. 2006 Neurosci 26:4649-59). jetPEI was used for transfection with cDNA and jetSI-ENDO for siRNA assays as indicated by the manufacturer (PolyPlus Transfection). siRNA oligos were obtained from Clontech (β-catenin) and QIAGEN (SIRT1, SIRT2, SIRT3, UCP2 and UCP4). […] Cells were subjected to DAPI staining and cell death was scored 48 hours after cell transfection by counting picnotic versus normal nuclei in DAPI- and JetSI-ENDO-positive cells. Cytoplasmic and nuclear proteins were extracted as previously described (Arango et al. 2006 Neurosci 26:4649-59), separated by SDS-PAGE and analyzed by Western blotting using the following primary antibodies: Mouse anti-SIRT1 (Upstate, 1:1000), mouse anti-SIRT2 (Santa Cruz, 1:100), rabbit anti-SIRT-3 (Abgent, 1:100), rabbit-anti-β-catenin (Cell Signaling, 1:5000), mouse anti-FoxO3a (Cell Signaling, 1:1000), goat-anti-UCP2 (Santa Cruz, dilution), rabbit-anti-UCP4 (Abcam, 1:25), mouse anti-actin (Invitrogen, 1:2000), anti-htt (4C8, Chemicon, 1:5000). […] Proteins were detected using ECL+ and evaluated by densitometry. Quantitative Real-Time PCR experiments were performed as described in the Supporting Information/Materials and Methods. […]

[3] = system: β-catenin; experiment: Western blot of β-catenin in 109Q/109Q cells; format: cell-based, mouse
Description: as §1

[4] = system: mutant htt; experiment: Western blot of mutant htt in 109Q/109Q cells; format: cell-based, mouse
Description: as §1

[5] = system: UCP2 mRNA; experiment: Quantitative RT-PCR of UCP2 mRNA in striatal cells; format: cell-based, mouse
Description: as §1

[6] = system: UCP4 mRNA; experiment: Quantitative RT-PCR of UCP4 mRNA in striatal cells; format: cell-based, mouse; conditions: for UCP4 mRNA levels: 109Q/109Q cells, qRT-PCR
Description: as §1, with “UCP4). Mixes of 3-4 different siRNA sequences per gene (25 or 33 nM) were systematically tested for modulation of cell survival and siRNA target gene expression, followed by the evaluation of individual siRNA sequences at optimal concentration (25-100 nM).” for “UCP4).”
Quantitative RT-PCR was performed on RNA extracted from 109Q/109Q mouse striatal cells, transfected with the appropriate siRNAs, to assess gene silencing efficiency. […]

[7] = system: reactive oxygen species (ROS) levels in striatal cells; experiment: ROS levels in striatal cells; format: cell-based, mouse
[8] = system: 128Q nematodes (expanded polyQ in touch receptor neurons); experiment: Touch test (response to light touch at the tail) in 128Q nematodes; format: in vivo, C. elegans
Description: (§2) The wild-type strain of C. elegans used was Bristol N2. Standard methods of culturing and handling worms were used. All strains were scored at 20° C. Touch tests, scoring of PLM cell processes, drug response assays and quantitative Real-Time PCR were performed as previously described (Parker et al. 2005 Nat Genet. 37:349-350). Western analysis was performed using standard protocols and htt fusion proteins detected with the GFP antibody ab6556 (Abcam). Mutations and transgenes used in this study were: aak-2(ok524), bar-1(ga80), cfz-2(ok 1201), cst-1(tm1900), ctl-2(ok1137), cwn-1(ok546), cwn-2(ok895), daf-2(e1370), daf-16(mgD150), dhc-1(or195), dnc-1(or 404), egl-20(n585), ftt-2(n4426), geln3[sir-2.1(+)], igls1[mec-3::htt57Q128::CFP;mec-7::YFP;lin-15(+)], igls245[mec-3::htt57Q19::CFP; mec-7::YFP; lin-15(+)]. lin-17(n671), lin-44(n1792), mig-1(e1787), pop-1(q624), rrf-3(pk1426), sir-2.1(ok434), sod-3(gk235) and ucp-4(ok 195). […]
(§3) Touch tests involved scoring for the response to light touch at the tail by using a fine hair. […] The responses were recorded for every animal such that, for example, 3 responses out of 10 at the tail is given as 30% responsiveness, and the mean values for responsiveness were retained for comparison of nematode groups.

[9] = system: 19Q nematodes (normal polyQ); experiment: Touch test in 19Q control nematodes; format: in vivo, C. elegans
Description: as §2, §3

[10] = system: PLM cells of 128Q animals; experiment: Scoring of PLM cell processes (axonal swelling); format: in vivo, C. elegans; conditions: versus DMSO controls
Description: as §2, with “195). All strains were obtained from the C. elegans Genetics Center (University of Minnesota, Minneapolis) except for cst-1(tm1900) which was from the National Bioresource Project for the Nematode (Tokyo, Japan). For strain construction with polyQ transgenes, mutants were verified by visible phenotypes, PCR analysis for deletion mutants, sequencing for point mutations or a combination thereof.” for “195).”

[11] = siRNA 25-100 nM, cell death scored 48 hours after transfection, versus untreated

β-catenin siRNA: siRNA 5′-GGCTTTTCCCAGTCCTTCATT-3′ (100 nM) (SEQ ID NO:41) (listed as DNA, chemistry not given here)
survival of 109Q/109Q cells [1, 11]: reduced the survival of mutant htt striatal cells; also recorded: decreased the survival of 109Q/109Q cells | survival of normal htt (7Q/7Q) cells [2]: no effects in normal htt cells | β-catenin expression [3]: β-catenin was reduced | mutant htt expression [4]: unchanged; also recorded: no change in htt expression | UCP2 expression ([5]; 7Q/7Q cells): No effect | UCP2 mRNA levels ([5]; 109Q/109Q cells, qRT-PCR): downregulated; also recorded: decreased UCP2 mRNA levels | UCP4 expression ([6]; 7Q/7Q cells): No effect | UCP4 mRNA levels [6]: upregulated | ROS levels ([7]; mutant htt (109Q/109Q) striatal cells, versus untreated): increased reactive oxygen species (ROS) levels in mutant htt striatal cells | ROS levels ([7]; normal htt (7Q/7Q) cells): no effects in normal htt cells

O=C1Nc2cc(Br)ccc2/C1=C1/Nc2ccccc2/C1=N\O [BIO, 6-bromoindirubin-3′-oxime]
neuronal dysfunction / expanded polyQ neurotoxicity (loss of response to touch) ([8]; 128Q nematodes, versus DMSO or untreated […]Q controls): rescues expanded polyQ neurotoxicity; also recorded: reduced neuronal dysfunction in 1280 animals | BIO rescuing activity in 128Q animals mutant for FoxO network genes ([8]; 128Q, mutants for daf-16, sir-2.1, bar-1 and ucp-4): lost and in a bar-1 dependent manner and no effect in mutants for sir-2.1, daf-16 and ucp-4 | effect on normal polyQ (19Q) controls, touch response [9]: no effect on 19Q controls | axonal swelling (AxSw) [10]: reduced AxSw in PLM cells of 128Q animals; also recorded: reduced axonal swelling | survival effect of BIO combined with β-catenin siRNA ([1]; BIO 0.5 μM + β-catenin siRNA, 109Q/109Q cells): lost by β-catenin siRNA | survival of 109Q/109Q cells ([1]; BIO 0.5 μM, cell death induced by serum deprivation, versus DMSO controls): enhanced the survival of 109Q/109Q cells

[Cl-].[Li+] [Lithium chloride]
effect on normal polyQ (19Q) controls, touch response [9]: no effects on 19Q controls

UCP4 siRNA: siRNA 5′-GCCTATAGTATGTGCTTAATT-3′ (SEQ ID NO:47) (33 nM) (listed as DNA, chemistry not given here)
survival of 109Q/109Q cells [1, 11]: increased the survival of 109Q/109Q cells | mutant htt expression [4]: unchanged; also recorded: no change in htt expression | UCP4 mRNA levels [6]: decreased UCP4 mRNA levels
